Laboratory results as given in patent US7279493B2, “Therapeutic agents useful for treating pain” (Euro-Celtique S.A., priority 2002, dated 2007).

Columns and labels:
human VR1 [1] = biological target: T1, human VR1 (Homo sapiens, UniProt Q8NER1); assay: VR1 pH-based assay in HEK293-EcR cells (FLIPR, Fluo-4); assay type: cell-based; conditions: activation by agonist buffer giving pH 5.5, human VR1 in PonA-induced HEK293-EcR cells, 50 pM to 3 μM, n+3
T1 construct: expressed in transfected cells
Procedure: Human VR1 cloning. Human spinal cord RNA (commercially available from Clontech, Palo Alto, Calif.) was used. Reverse transcription was conducted on 1.0 μg total RNA using Thermoscript Reverse Transcriptase (commercially available from Invitrogen, Carlsbad, Calif.) and oligo dT primers as detailed in its product description. Reverse transcription reactions were incubated at 55° C. for 1 h, heat-inactivated at 85° C. for 5 min, and RNase H-treated at 37° C. for 20 min. Human VR1 cDNA sequence was obtained by comparison of the human genomic sequence, prior to annotation, to the published rat sequence. Intron sequences were removed and flanking exonic sequences were joined to generate the hypothetical human cDNA. Primers flanking the coding region of human VR1 were designed as follows: forward primer, [NT]; and reverse primer, [NT] of VR1 was performed on one tenth of the Reverse transcription reaction mixture using Expand Long Template Polymerase and Expand Buffer 2 in a final volume of 50 μL according to the manufacturer's instructions (Roche Applied Sciences, Indianapolis, Ind.). After denaturation at 94° C. for 2 min PCR amplification was performed for 25 cycles at 94° C. for 15 sec, 58° C. for 30 sec, and 68° C. for 3 min followed by a final incubation at 72° C. for 7 min to complete the amplification. […]

human VR1 [2] = biological target: T1, human VR1; assay: VR1 capsaicin-based assay in HEK293-EcR cells (FLIPR, Fluo-4); assay type: cell-based
Procedure: Human VR1 cloning. Human spinal cord RNA (commercially available from Clontech, Palo Alto, Calif.) was used. Reverse transcription was conducted on 1.0 μg total RNA using Thermoscript Reverse Transcriptase (commercially available from Invitrogen, Carlsbad, Calif.) and oligo dT primers as detailed in its product description. Reverse transcription reactions were incubated at 55° C. for 1 h, heat-inactivated at 85° C. for 5 min, and RNase H-treated at 37° C. for 20 min. Human VR1 cDNA sequence was obtained by comparison of the human genomic sequence, prior to annotation, to the published rat sequence. Intron sequences were removed and flanking exonic sequences were joined to generate the hypothetical human cDNA. […] On the day of assay, cells were loaded with Fluo-4 (a calcium-sensitive dye that is commercially available from Molecular Probes, Eugene, Oreg.) and CAP-mediated calcium influx was measured using a Fluorometric Imaging Plate Reader (“FLIPR”) (commercially available from Molecular Devices Corp., Sunnyvale, Calif.) as described below. […]

T1 sequence (Q8NER1 whole entry): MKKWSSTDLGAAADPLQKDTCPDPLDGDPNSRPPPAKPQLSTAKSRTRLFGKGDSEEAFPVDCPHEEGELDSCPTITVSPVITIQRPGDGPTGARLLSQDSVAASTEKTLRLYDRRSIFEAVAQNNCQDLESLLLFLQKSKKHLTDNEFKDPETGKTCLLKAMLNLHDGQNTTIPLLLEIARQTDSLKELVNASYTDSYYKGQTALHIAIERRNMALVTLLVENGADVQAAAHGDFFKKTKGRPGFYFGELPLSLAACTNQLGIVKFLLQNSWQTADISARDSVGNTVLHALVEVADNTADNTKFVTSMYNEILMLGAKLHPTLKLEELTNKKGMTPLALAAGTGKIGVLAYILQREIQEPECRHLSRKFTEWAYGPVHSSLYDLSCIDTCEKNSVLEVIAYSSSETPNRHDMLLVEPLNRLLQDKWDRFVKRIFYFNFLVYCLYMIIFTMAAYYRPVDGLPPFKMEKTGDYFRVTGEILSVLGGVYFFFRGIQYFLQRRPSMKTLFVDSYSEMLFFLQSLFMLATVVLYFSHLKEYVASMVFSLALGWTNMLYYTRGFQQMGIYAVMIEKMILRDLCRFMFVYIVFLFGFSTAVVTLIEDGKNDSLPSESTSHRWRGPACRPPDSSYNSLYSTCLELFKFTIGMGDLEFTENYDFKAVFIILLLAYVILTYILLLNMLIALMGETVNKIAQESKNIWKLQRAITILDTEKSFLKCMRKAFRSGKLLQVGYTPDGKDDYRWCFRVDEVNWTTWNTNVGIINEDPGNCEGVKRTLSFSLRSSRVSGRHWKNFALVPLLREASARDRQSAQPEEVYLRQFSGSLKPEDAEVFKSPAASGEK

C[C@@H]1CN(c2ncccc2Cl)CCN1/C(=N\C#N)NCCC1=CCCCC1 [Compound DEY]
IC50 (human VR1 [1]): 197 ± 39.8 nM
IC50 (human VR1 [2]; capsaicin-based assay, human VR1 activated by capsaicin (400 nM) in PonA-induced HEK293-EcR cells, 50 pM to 3 μM, n+3): 59.4 ± 13.1 nM
binding to and modulation of human VR1 (conclusion in words) (human VR1 [2]; conclusion from the pH-based assay and the capsaicin-based assay): binds to and modulates the activity of human VR1
